{"source": "ChEMBL document CHEMBL5543095", "about": "(Eur J Med Chem, 2024)", "key": {"[1]": {"test_system": "A549", "assay": "Antiproliferative activity against human A549 cells assessed as inhibition of cell growth inhibition incubated for 48 hrs by CCK-8 assay", "type": "functional, cell-based", "details": "A549, 48 h"}, "[2]": {"assay": "Cytotoxicity against HUVEC cells assessed as inhibition of cell growth inhibition incubated for 48 hrs by CCK-8 assay", "type": "toxicity, cell-based", "details": "human"}, "[3]": {"test_system": "U-87 MG", "assay": "Induction of cell cycle arrest in human U87 cells assessed as accumulation of cells at […] at 0.5 uM measured after 48 hrs by PI staining based flow cytometry analysis (reference value: 8.55%)", "type": "functional, U-87MG ATCC"}, "[4]": {"test_system": "U-87 MG", "assay": "Induction of cell cycle arrest in human U87 cells assessed as accumulation of cells at G1 phase at 1 uM measured after 48 hrs by PI staining based flow cytometry analysis (reference value: 72.6%)", "type": "functional, U-87MG ATCC"}, "[5]": {"test_system": "U-87 MG", "assay": "Induction of cell cycle arrest in human U87 cells assessed as accumulation of cells at […] at 1 uM measured after 48 hrs by PI staining based flow cytometry analysis (reference value: 8.55%)", "type": "functional, U-87MG ATCC"}, "[6]": {"test_system": "U-87 MG", "assay": "Induction of cell cycle arrest in human U87 cells assessed as accumulation of cells at G1 phase at 2 uM measured after 48 hrs by PI staining based flow cytometry analysis (reference value: 72.6%)", "type": "functional, U-87MG ATCC"}, "[7]": {"test_system": "U-87 MG", "assay": "Induction of cell cycle arrest in human U87 cells assessed as accumulation of cells at […] at 2 uM measured after 48 hrs by PI staining based flow cytometry analysis (reference value: 8.55%)", "type": "functional, U-87MG ATCC"}, "[8]": {"test_system": "U-87 MG", "assay": "Induction of cell cycle arrest in human U87 cells assessed as accumulation of cells at G1 phase at 4 uM measured after 48 hrs by PI staining based flow cytometry analysis (reference value: 72.6%)", "type": "functional, U-87MG ATCC"}, "[9]": {"test_system": "U-87 MG", "assay": "Induction of cell cycle arrest in human U87 cells assessed as accumulation of cells at […] at 4 uM measured after 48 hrs by PI staining based flow cytometry analysis (reference value: 8.55%)", "type": "functional, U-87MG ATCC"}, "[10]": {"test_system": "U-87 MG", "assay": "Induction of apoptosis in human U87 cells assessed as live cells at 0.3125 uM incubated for 48 hrs by Annexin V-FITC/PI staining based flow cytometry analysis (reference value: 91.7%)", "type": "functional, U-87MG ATCC"}, "[11]": {"test_system": "U-87 MG", "assay": "Induction of apoptosis in human U87 cells assessed as early apoptotic cells at 0.3125 uM incubated for 48 hrs by Annexin V-FITC/PI staining based flow cytometry analysis (reference value: 6.25%)", "type": "functional, U-87MG ATCC"}, "[12]": {"test_system": "U-87 MG", "assay": "Induction of apoptosis in human U87 cells assessed as late apoptotic cells at 0.3125 uM incubated for 48 hrs by Annexin V-FITC/PI staining based flow cytometry analysis (reference value: 2.08%)", "type": "functional, U-87MG ATCC"}, "[13]": {"test_system": "U-87 MG", "assay": "Induction of apoptosis in human U87 cells assessed as dead cells at 0.3125 uM incubated for 48 hrs by Annexin V-FITC/PI staining based flow cytometry analysis (reference value: 0.013%)", "type": "functional, U-87MG ATCC"}, "[14]": {"test_system": "U-87 MG", "assay": "Induction of apoptosis in human U87 cells assessed as early apoptotic cells at 0.625 uM incubated for 48 hrs by Annexin V-FITC/PI staining based flow cytometry analysis (reference value: 6.25%)", "type": "functional, U-87MG ATCC"}, "[15]": {"test_system": "U-87 MG", "assay": "Induction of apoptosis in human U87 cells assessed as dead cells at 0.625 uM incubated for 48 hrs by Annexin V-FITC/PI staining based flow cytometry analysis (reference value: 0.013%)", "type": "functional, U-87MG ATCC"}, "[16]": {"test_system": "U-87 MG", "assay": "Induction of apoptosis in human U87 cells assessed as late apoptotic cells at 1.25 uM incubated for 48 hrs by Annexin V-FITC/PI staining based flow cytometry analysis (reference value: 2.08%)", "type": "functional, U-87MG ATCC"}, "[17]": {"test_system": "U-87 MG", "assay": "Induction of apoptosis in human U87 cells assessed as dead cells at 1.25 uM incubated for 48 hrs by Annexin V-FITC/PI staining based flow cytometry analysis (reference value: 0.013%)", "type": "functional, U-87MG ATCC"}, "[18]": {"test_system": "U-87 MG", "assay": "Induction of apoptosis in human U87 cells assessed as early apoptotic cells at 2.5 uM incubated for 48 hrs by Annexin V-FITC/PI staining based flow cytometry analysis (reference value: 6.25%)", "type": "functional, U-87MG ATCC"}, "[19]": {"test_system": "U-87 MG", "assay": "Induction of apoptosis in human U87 cells assessed as late apoptotic cells at 2.5 uM incubated for 48 hrs by Annexin V-FITC/PI staining based flow cytometry analysis (reference value: 2.08%)", "type": "functional, U-87MG ATCC"}, "[20]": {"test_system": "GL261-Luc", "assay": "Antitumor activity against mouse GL261-Luc cells implanted in iv dosed C57BL/6 mouse assessed as inhibition of tumor growth administered every other day on day 0,2,4,6,8,10 and measured on day 12 by bioluminescence imaging analysis", "type": "functional, organism-based", "details": "dose 5-10 mg/kg, time 12.0 day"}, "[21]": {"test_system": "GL261-Luc", "assay": "Antitumor activity against mouse GL261-Luc cells implanted in C57BL/6 mouse assessed as prolongation of animal survival time at 5 to 10 mg/kg, iv administered every other day on day 0,2,4,6,8,10 and measured after 12 days", "type": "functional, organism-based", "details": "dose 5-10 mg/kg, time 12.0 day"}, "[22]": {"test_system": "GL261-Luc", "assay": "Antivascular activity against mouse GL261-Luc cells implanted in C57BL/6 mouse assessed as reduction in tumor microvessel density at 5 to 10 mg/kg, iv administered every other day on day 0,2,4,6,8,10 and measured after 12 days by IHC staining based analysis", "type": "functional, organism-based", "details": "dose 5-10 mg/kg, time 12.0 day"}, "[23]": {"assay": "Toxicity in C57BL/6 mouse implanted with mouse GL261-Luc cells assessed as histopathological changes in liver at 5 to 10 mg/kg, iv administered every other day on day 0,2,4,6,8,10 and measured after 12 days by H and E staining based analysis", "type": "organism-based", "details": "in vivo, 288 h, dose 5-10 mg/kg, time 12 day"}, "[24]": {"assay": "Toxicity in C57BL/6 mouse implanted with mouse GL261-Luc cells assessed as histopathological changes in lung at 5 to 10 mg/kg, iv administered every other day on day 0,2,4,6,8,10 and measured after 12 days by H and E staining based analysis", "type": "organism-based", "details": "in vivo, 288 h, dose 5-10 mg/kg, time 12 day"}, "[25]": {"assay": "Toxicity in C57BL/6 mouse implanted with mouse GL261-Luc cells assessed as histopathological changes in kidney at 5 to 10 mg/kg, iv administered every other day on day 0,2,4,6,8,10 and measured after 12 days by H and E staining based analysis", "type": "organism-based", "details": "in vivo, 288 h, dose 5-10 mg/kg, time 12 day"}, "[26]": {"assay": "Apparent permeability across basolateral to apical side in MDCK-MDR1 cells at 10 uM incubated for 90 mins by LC-MS/MS analysis", "type": "ADME, cell-based, Canis lupus familiaris", "details": "dog"}, "[27]": {"test_system": "P-gp", "assay": "Substrate activity at P-gp in MDCK-MDR1 cells assessed as efflux ratio of apparent permeability across basolateral to apical side over apical to basolateral side at 10 uM incubated for 90 mins by LC-MS/MS analysis", "type": "ADME, cell-based, Canis lupus familiaris", "details": "dog"}, "[28]": {"test_system": "U-87MG ATCC", "assay": "Downregulation of TUBA1A gene expression in human U87 cells by transcriptome analysis", "type": "functional, cell-based"}, "[29]": {"test_system": "U-87MG ATCC", "assay": "Upregulation of CGNL1 gene expression in human U87 cells by transcriptome analysis", "type": "functional, cell-based"}, "[30]": {"test_system": "U-87MG ATCC", "assay": "Upregulation of NECTIN4 gene expression in human U87 cells by transcriptome analysis", "type": "functional, cell-based"}, "[31]": {"target": "Tubulin (Homo sapiens) (UniProt P68371+Q9H4B7+P0DPH7+P68366+Q13509+Q71U36+P04350+Q3ZCM7+P07437+P68363+Q9BQE3+Q6PEY2+Q13885+Q9BVA1+Q9BUF5)", "assay": "Induction of microtubule depolymerization in human U87 cells assessed as degradation of intracellular tubulin skeleton by measuring reduction in fluorescence intensity at 0.5 to 1 uM incubated for 48 hrs by Alexa Flour 555/DAPI staining based confocal microscopic analysis", "type": "cell-based", "details": "dose 0.5-1 µM"}}, "note": "Activity calls are given as the source filed them. The calls are words filed in the database; no cut-off is given here."}
{"molecule": "Cc1ccc2ccc3c(c2n1)OC(N)=C(C#N)C3c1ccccc1", "note": "(stereo unspecified)", "values": [{"measurement": "IC50", "setting": "[1]", "result": 0.88, "unit": "µM"}, {"measurement": "IC50 at 48 h", "setting": "[2]", "result": "> 10", "unit": "µM"}, {"measurement": "Activity", "setting": "[3]", "result": 10.6, "unit": "%"}, {"measurement": "Activity", "setting": "[4]", "result": 33, "unit": "%"}, {"measurement": "Activity", "setting": "[5]", "result": 24.6, "unit": "%"}, {"measurement": "Activity", "setting": "[6]", "result": 14.4, "unit": "%"}, {"measurement": "Activity", "setting": "[7]", "result": 56.2, "unit": "%"}, {"measurement": "Activity", "setting": "[8]", "result": 13, "unit": "%"}, {"measurement": "Activity", "setting": "[9]", "result": 59.3, "unit": "%"}, {"measurement": "Activity", "setting": "[10]", "result": 88.1, "unit": "%"}, {"measurement": "Activity", "setting": "[11]", "result": 7.01, "unit": "%"}, {"measurement": "Activity", "setting": "[12]", "result": 4.87, "unit": "%"}, {"measurement": "Activity", "setting": "[13]", "result": 0.019, "unit": "%"}, {"measurement": "Activity", "setting": "[14]", "result": 16.1, "unit": "%"}, {"measurement": "Activity", "setting": "[15]", "result": 0.1, "unit": "%"}, {"measurement": "Activity", "setting": "[16]", "result": 7.82, "unit": "%"}, {"measurement": "Activity", "setting": "[17]", "result": 0.027, "unit": "%"}, {"measurement": "Activity", "setting": "[18]", "result": 20.6, "unit": "%"}, {"measurement": "Activity", "setting": "[19]", "result": 16.8, "unit": "%"}, {"measurement": "Activity", "setting": "[20]", "result": "Dose-Dependent Effect"}, {"measurement": "Activity", "setting": "[21]", "result": "Active"}, {"measurement": "Activity", "setting": "[22]", "result": "Active"}, {"measurement": "Activity", "setting": "[23]", "result": "Non-Toxic"}, {"measurement": "Activity", "setting": "[24]", "result": "Non-Toxic"}, {"measurement": "Activity", "setting": "[25]", "result": "Non-Toxic"}, {"measurement": "Papp B→A at 1.5 h, 10 µM", "setting": "[26]", "result": 25.8, "unit": "×10⁻⁶ cm/s"}, {"measurement": "efflux ratio at 1.5 h, 10 µM", "setting": "[27]", "result": 0.76}, {"measurement": "Activity", "setting": "[28]", "result": "Active"}, {"measurement": "Activity", "setting": "[29]", "result": "Active"}, {"measurement": "Activity", "setting": "[30]", "result": "Active"}, {"measurement": "Activity", "setting": "[31]", "result": "Active"}]}
